# Biological target: WIL-FL (Homo sapiens, UniProt P01721)
# Test: Unlabeled LC Protease Sensitivity Assay (proteinase K)
# Type: biochemical
# Conditions: small molecule 10 μM, WIL-FL 5 μM, proteinase K 50 nM, 2 hours at 37° C.
# Description: Unlabeled LC Protease Sensitivity Assay. WIL-FL (5 μM) in phosphate-buffered saline (PBS, pH 7.4)+0.02% Pluronic F-127 was incubated with proteinase K (50 nM) with small molecule (10 μM) in 1% DMSO vehicle, or vehicle alone. After 2 hours at 37° C., reactions were quenched with 2 mM phenylmethyl sulfonyl fluoride in methanol and centrifuged at 14,000 rpm for 2 minutes. Remaining WIL-FL was quantified by injecting 10 μL of the supernatant into a Waters Acquity H-Class Bio-UPLC (ultra performance liquid chromatography) instrument equipped with a BEH200 analytical size-exclusion column (1.7 μm, 4.6×150 mm) under isocratic conditions (0.2 mL/min, PBS+1 mM EDTA, 2400 psi backpressure, 15 min), monitoring absorbance at 280 nm. Activity of each compound is given as fold protection from protease=(A_compound−A_vehicle)/(A_no_protease−A_vehicle), where each “A” corresponds to peak integration of the respective treatment.
row,Protection (fold protection of LC from protease),SMILES
1,C (C ≥ 0.6),"CCN(CC)c1ccc2c(C)c(CCNC(=O)NCc3ccccc3)c(=O)oc2c1 [Compound 278, 1-benzyl-3-(2-(7-(diethylamino)-4-methyl-2-oxo-2H-chromen-3-yl)ethyl)urea]"
2,B (3 ≤ B < 0.6),"CCN(CC)c1ccc2c(C)c(CCOC(=O)NCc3ccncc3)c(=O)oc2c1 [Compound 86, 2-(7-(diethylamino)-4-methyl-2-oxo-2H-chromen-3-yl)ethyl (pyridin-4-ylmethyl)carbamate]"
3,B (3 ≤ B < 0.6),"CCN(CC)c1ccc2c(C)c(CCNC(=O)NCc3cccc(CCC(=O)O)c3)c(=O)oc2c1 [Compound 307, 3-(3-((3-(2-(7-(diethylamino)-4-methyl-2-oxo-2H-chromen-3-yl)ethyl)ureido)methyl)phenyl)propanoic acid]"
4,A (A < 0.3)),"CCN(CC)c1ccc2c(C)c(CCN3C(=O)NC4(CCN(c5ccc(C(F)(F)F)cn5)C4)C3=O)c(=O)oc2c1 (centres unmarked) [Compound 196, 3-(2-(7-(diethylamino)-4-methyl-2-oxo-2H-chromen-3-yl)ethyl)-7-(5-(trifluoromethyl)pyridin-2-yl)-1,3,7-triazaspiro[4.4]nonane-2,4-dione]"
5,B (3 ≤ B < 0.6),"CCN(CC)c1ccc2c(C)c(CCOC(=O)NCc3cccc(-c4cncnc4)c3)c(=O)oc2c1 [Compound 156, 2-(7-(diethylamino)-4-methyl-2-oxo-2H-chromen-3-yl)ethyl (3-(pyrimidin-5-yl)benzyl)carbamate]"
6,B (3 ≤ B < 0.6),"CCN(CC)c1ccc2c(C)c(CCNC(=O)NCCc3cccnc3)c(=O)oc2c1 [Compound 99, 1-(2-(7-(diethylamino)-4-methyl-2-oxo-2H-chromen-3-yl)ethyl)-3-(2-(pyridin-3-yl)ethyl)urea]"
7,A (A < 0.3)),"Cc1cc(=O)oc2cc(C(=O)Nc3ccc4ccccc4c3)ccc12 [Compound 227, 4-methyl-N-(naphthalen-2-yl)-2-oxo-2H-chromene-7-carboxamide]"
8,A (A < 0.3)),"Cc1cc(=O)oc2cc(OC(C)c3cnccn3)ccc12 (centres unmarked) [Compound 173, 4-methyl-7-(1-(pyrazin-2-yl)ethoxy)-2H-chromen-2-one]"
9,C (C ≥ 0.6),"CCN(CC)c1ccc2c(C)c(CCOC(=O)NCc3cccc(-c4ccncc4)c3)c(=O)oc2c1 [Compound 162, 2-(7-(diethylamino)-4-methyl-2-oxo-2H-chromen-3-yl)ethyl (3-(pyridin-4-yl)benzyl)carbamate]"
10,A (A < 0.3)),"Cc1cc(=O)oc2cc(N(C)CCCF)ccc12 [Compound 258, 7-((3-fluoropropyl)(methyl)amino)-4-methyl-2H-chromen-2-one]"
11,C (C ≥ 0.6),"CCN(CC)c1ccc2c(C)c(CCNC(=O)NCc3cccc(OCC(=O)OC)c3)c(=O)oc2c1 [Compound 312, Methyl 2-(3-((3-(2-(7-(diethylamino)-4-methyl-2-oxo-2H-chromen-3-yl)ethyl)ureido)methyl)phenoxy)acetate]"
12,A (A < 0.3)),"CCN(CC)c1ccc2c(CCCOC(=O)NCc3cccc(C(N)=O)c3)cc(=O)oc2c1 [Compound 302, 3-(7-(diethylamino)-2-oxo-2H-chromen-4-yl)propyl (3-carbamoylbenzyl)carbamate]"
13,A (A < 0.3)),"CCN(CC)c1ccc2c(C)c(CCN3C(=O)NC4(CCN(c5ncc(C(F)(F)F)cn5)CC4)C3=O)c(=O)oc2c1 [Compound 186, 3-(2-(7-(diethylamino)-4-methyl-2-oxo-2H-chromen-3-yl)ethyl)-8-(5-(trifluoromethyl)pyrimidin-2-yl)-1,3,8-triazaspiro[4.5]decane-2,4-dione]"
14,C (C ≥ 0.6),"CCN(CC)c1ccc2c(C)c(CCN3C(=O)NC4(CCN(c5ncccn5)C4)C3=O)c(=O)oc2c1 (centres unmarked) [Compound 194, 3-(2-(7-(diethylamino)-4-methyl-2-oxo-2H-chromen-3-yl)ethyl)-7-(pyrimidin-2-yl)-1,3,7-triazaspiro[4.4]nonane-2,4-dione]"
15,B (3 ≤ B < 0.6),"CCN(CC)c1ccc2c(C)c(CCNC(=O)NCc3cccc(CCC(=O)OC)c3)c(=O)oc2c1 [Compound 308, Methyl 3-(3-((3-(2-(7-(diethylamino)-4-methyl-2-oxo-2H-chromen-3-yl)ethyl)ureido)methyl)phenyl)propanoate]"
16,A (A < 0.3)),"CCN(CC)c1ccc2c(C)c(CCN3C(=O)NC4(CCN(c5ccc(C(F)(F)F)cn5)CC4)C3=O)c(=O)oc2c1 [Compound 187, 3-(2-(7-(diethylamino)-4-methyl-2-oxo-2H-chromen-3-yl)ethyl)-8-(5-(trifluoromethyl)pyridin-2-yl)-1,3,8-triazaspiro[4.5]decane-2,4-dione]"
17,A (A < 0.3)),"C#CCN(CC)c1ccc2c(C)cc(=O)oc2c1 [Compound 271, 7-(ethyl(prop-2-yn-1-yl)amino)-4-methyl-2H-chromen-2-one]"
18,B (3 ≤ B < 0.6),"CCN(CC)c1ccc2c(C)c(CCNC(=O)NC)c(=O)oc2c1 [Compound 131, 1-(2-(7-(diethylamino)-4-methyl-2-oxo-2H-chromen-3-yl)ethyl)-3-methylurea]"
19,B (3 ≤ B < 0.6),"CCN(CC)c1ccc2c(C)c(CCOC(=O)NCc3ccc(NC(C)=O)cn3)c(=O)oc2c1 [Compound 127, 2-(7-(diethylamino)-4-methyl-2-oxo-2H-chromen-3-yl)ethyl ((5-acetamidopyridin-2-yl)methyl)carbamate]"
20,B (3 ≤ B < 0.6),"CCN(CC)c1ccc2c(C)c(CCNC(=O)NCc3ccc4c(=O)[nH]ccc4c3)c(=O)oc2c1 [Compound 296, 1-(2-(7-(diethylamino)-4-methyl-2-oxo-2H-chromen-3-yl)ethyl)-3-((1-oxo-1,2-dihydroisoquinolin-6-yl)methyl)urea]"
21,A (A < 0.3)),"CCCN(CC)c1ccc2c(C)cc(=O)oc2c1 [Compound 275, 7-(ethyl(propyl)amino)-4-methyl-2H-chromen-2-one]"
22,C (C ≥ 0.6),"CCN(CC)c1ccc2c(C)c(CCOC(=O)NCc3cccc(-c4cc[nH]n4)c3)c(=O)oc2c1 [Compound 159, 2-(7-(diethylamino)-4-methyl-2-oxo-2H-chromen-3-yl)ethyl (3-(1H-pyrazol-5-yl)benzyl)carbamate]"
23,A (A < 0.3)),"CCN(CC)c1ccc2c(C)c(CC(=O)N(C)C)c(=O)oc2c1 [Compound 61, 2-(7-(diethylamino)-4-methyl-2-oxo-2H-chromen-3-yl)-N,N-dimethylacetamide]"
24,A (A < 0.3)),"CC(C)CC1NC(=O)N(CC(=O)Nc2ccc(C(F)(F)F)cc2)C1=O (single isomer, unassigned) [Compound 23]"
25,A (A < 0.3)),"CCN(CC#N)c1ccc2c(C)cc(=O)oc2c1 [Compound 272, 2-(ethyl(4-methyl-2-oxo-2H-chromen-7-yl)amino)acetonitrile]"
26,A (A < 0.3)),"Cc1cc(=O)oc2cc(C(=O)Nc3ccc4[nH]cnc4c3)ccc12 [Compound 238, N-(1H-benzo[d]imidazol-6-yl)-4-methyl-2-oxo-2H-chromene-7-carboxamide]"
